In patent US9481682B2, “Substituted benzamides and substituted pyridinecarboxamides as Btk inhibitors” (MERCK SHARP & DOHME CORP., priority 2013, dated 2016):
Read-outs that look alike come from different tables or passages of the source.

Key:
[1] = tested on: HeLa cells; experiment: [3H]Adenosine uptake functional cellular assay; type: cell-based; details: accumulation of [3H]adenosine into HeLa cells, read-out: Adenosine uptake inhibition IC50
Protocol: Compounds are also screened in an adenosine uptake functional cellular assay using the protocol described below. The adenosine uptake inhibition assay may be used to identify compounds with the potential for a negative cardiovascular side effect.
Adenosine uptake activity was determined by monitoring the accumulation of tritiated adenosine into HeLa cells (ATCC catalog #CCL-2) using a PMT-based radiometric detection instrument. […] These cells were incubated overnight at 37° C. in a humidified atmosphere with 5% (v/v) CO2. After this time the growth medium was removed and replaced with 40 μL assay medium comprising: Hanks balanced salts solution (HBSS; Thermo Fisher Catalog #SH30268.01)+5% (v/v) FBS. […] Following this incubation, 20 μL of 500 nM [^3H]adenosine (American Radiolabeled Chemicals Inc. […] The amount of radiolabel accumulation was then determined using a Perkin Elmer Topcount NXT microplate reader. In brief, HeLa cells adhere to the bottom of the Cytostar-T plate, uptake of [^3H]adenosine into these cells brings the radiolabel into sufficient proximity to excite the scintillant in the base of the plates. These events are captured by single PMT, time-resolved coincidence counting. IC50 values were determined by 4 parameter robust fit of counts per second values vs. (Log10) compound concentrations.

[2] = biological target: hBTK (recombinant full-length BTK) (Homo sapiens (Human), UniProt Q06187); experiment: BTK enzymatic activity, LANCE TR-FRET assay; type: biochemical; details: 50 pM hBTK, 2 μM biotin-A5-peptide, 25 μM ATP; 60 minute compound & enzyme incubation
Chain of hBTK (recombinant full-length BTK) (Q06187 whole entry): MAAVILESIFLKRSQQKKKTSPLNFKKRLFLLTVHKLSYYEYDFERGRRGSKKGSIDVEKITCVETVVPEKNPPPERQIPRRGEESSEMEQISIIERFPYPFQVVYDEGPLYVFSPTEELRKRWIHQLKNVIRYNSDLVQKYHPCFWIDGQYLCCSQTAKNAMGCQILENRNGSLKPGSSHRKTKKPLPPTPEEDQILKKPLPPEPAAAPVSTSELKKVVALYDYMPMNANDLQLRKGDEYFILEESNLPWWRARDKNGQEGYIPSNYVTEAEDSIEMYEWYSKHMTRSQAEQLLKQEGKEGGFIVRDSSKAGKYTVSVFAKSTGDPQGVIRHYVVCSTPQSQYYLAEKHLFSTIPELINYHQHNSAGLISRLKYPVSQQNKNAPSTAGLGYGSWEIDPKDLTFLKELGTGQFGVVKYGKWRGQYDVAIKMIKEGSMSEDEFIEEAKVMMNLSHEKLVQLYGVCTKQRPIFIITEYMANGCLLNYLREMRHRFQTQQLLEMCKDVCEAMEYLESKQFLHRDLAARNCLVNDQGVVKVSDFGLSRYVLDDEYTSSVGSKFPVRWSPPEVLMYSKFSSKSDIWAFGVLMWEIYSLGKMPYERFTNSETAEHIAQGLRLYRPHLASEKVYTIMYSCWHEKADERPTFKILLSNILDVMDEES
Protocol: BTK enzymatic activity was determined with the LANCE (Lanthanide Chelate Excite) TR-FRET (Time-resolved fluorescence resonance energy transfer) assay. […] Phosphorylation reactions were allowed to proceed for 120 minutes. […] After 60 minutes incubation with detection reagents, reaction plates were read on a PerkinElmer EnVision plate reader using standard TR-FRET protocol. […] IC50 values were determined by 4 parameter robust fit of TR-FRET ratio values vs. (Log10) compound concentrations.

[3] = Homo sapiens, compound range 10 μM to 0.032 nM

Row | SMILES | IC50 [1, 3] | IC50 [2] | IC50 ([1]; compound range 10 μM to […])
1 | Nc1nccn2c([C@H]3CC[C@H]4CNCC(=O)N4C3)nc(-c3ccc(C(=O)Nc4cc(C(F)(F)F)ccn4)cc3)c12 [Example 57, 4-{8-amino-3-[(7S,9aS)-4-oxooctahydro-2H-pyrido[1,2-a]pyrazin-7-yl]imidazo[1,5-a]pyrazin-1-yl}-N-[4-(trifluoromethyl)pyridin-2-yl]benzamide] | 10000 nM | – | –
2 | Nc1nccn2c([C@@H]3CC[C@@H]4C[C@H](O)C(=O)N4C3)nc(-c3ccc(C(=O)Nc4cc(C(F)(F)F)ccn4)cc3)c12 [Example 72, 4-{8-amino-3-[(2S,6R,8aR)-2-hydroxy-3-oxooctahydroindolizin-6-yl]imidazo[1,5-a]pyrazin-1-yl}-N-[4-(trifluoromethyl)pyridin-2-yl]benzamide] | 730 nM | 0.45 nM | –
3 | Nc1nccn2c([C@H]3CC[C@H]4C[C@@H](O)C(=O)N4C3)nc(-c3ccc(C(=O)Nc4cc(C(F)(F)F)ccn4)cc3)c12 [Example 74, 4-{8-amino-3-[(2R,6S,8aS)-2-hydroxy-3-oxooctahydroindolizin-6-yl]imidazo[1,5-a]pyrazin-1-yl}-N-[4-(trifluoromethyl)pyridin-2-yl]benzamide] | 1300 nM | 4.6 nM | –
4 | CN1CC[C@@H]2CC[C@@H](c3nc(-c4ccc(C(=O)Nc5cc(C(F)(F)F)ccn5)cc4)c4c(N)nccn34)CN2C1=O [Example 83, 4-(8-amino-3-((4aS,7R)-2-methyl-1-oxooctahydro-1H-pyrido[1,2-c]pyrimidin-7-yl)imidazol[1,5-a]pyrazin-1-yl)-N-(4-(trifluoromethyl)pyridin-2-yl)benzamide] | – | 0.092 nM | 124 nM
5 | CN1CC[C@H]2CC[C@H](c3nc(-c4ccc(C(=O)Nc5cc(C(F)(F)F)ccn5)cc4)c4c(N)nccn34)CN2C1=O [Example 84, 4-(8-amino-3-((4aR,7S)-2-methyl-1-oxooctahydro-1H-pyrido[1,2-c]pyrimidin-7-yl)imidazol[1,5-a]pyrazin-1-yl)-N-(4-(trifluoromethyl)pyridin-2-yl)benzamide] | – | 3 nM | 155 nM
6 | COc1cc(C(=O)Nc2cc(C(F)(F)F)ccn2)ccc1-c1nc([C@@H]2CC[C@H]3CN(C(=O)c4ccncc4)CC(=O)N3C2)n2ccnc(N)c12 [Example 85, 4-(8-amino-3-((7R,9aS)-2-isonicotinoyl-4-oxooctahydro-1H-pyrido[1,2-a]pyrazin-7-yl)imidazo[1,5-a]pyrazin-1-yl)-3-methoxy-N-(4-(trifluoromethyl)pyridin-2-yl)benzamide] | 2780 nM | – | –
7 | Nc1nccn2c([C@@H]3CC[C@H]4CCC(=O)N4C3)nc(-c3ccc(C(=O)Nc4cc(C(F)(F)F)ccn4)cc3OCCO)c12 [Example 200, 4-{8-amino-3-[(6R,8aS)-3-oxooctahydroindolizin-6-yl]imidazo[1,5-a]pyrazin-1-yl}-3-(2-hydroxyethoxy)-N-[4-(trifluoromethyl)pyridin-2-yl]benzamide] | 5450 nM | – | –

Now from value to compound:

Row | IC50 [1, 3] | IC50 [2] | IC50 ([1]; compound range 10 μM to […]) | SMILES
8 | 10000 nM | – | – | NC(=O)c1cc(C(=O)Nc2cc(C(F)(F)F)ccn2)ccc1-c1nc([C@@H]2CC[C@H]3CCC(=O)N3C2)n2ccnc(N)c12 [Example 124, 4-{8-amino-3-[(6R,8aS)-3-oxooctahydroindolizin-6-yl]imidazo[1,5-a]pyrazin-1-yl}-N~1~-[4-(trifluoromethyl)pyridin-2-yl]benzene-1,3-dicarboxamide]
9 | 10000 nM | – | – | Cn1nc(NC(=O)c2ccc(-c3nc([C@@H]4CC[C@H]5CCC(=O)N5C4)n4ccnc(N)c34)c(OC3CNC3)c2)cc1C(F)(F)F [Example 149, 4-{8-amino-3-[(6R,8aS)-3-oxooctahydroindolizin-6-yl]imidazo[1,5-a]pyrazin-1-yl}-3-(azetidin-3-yloxy)-N-[1-methyl-5-(trifluoromethyl)-1H-pyrazol-3-yl]benzamide]
10 | 7090 nM | 1.9 nM | – | COCCOc1cc(C(=O)Nc2cccc(C(F)(F)F)c2)ccc1-c1nc([C@@H]2CC[C@H]3CCC(=O)N3C2)n2ccnc(N)c12 [Example 199, 4-(8-amino-3-((6R,8aS)-3-oxooctahydroindolizin-6-yl)imidazo[1,5-a]pyrazin-1-yl)-3-(2-methoxyethoxy)-N-(3-(trifluoromethyl)phenyl)benzamide]
